Experiments:
[1] = tested on: nCoV-S Luc pseudovirus of SARS-CoV-2; assay type: cell-based
SARS-CoV-2 spike protein = SARS-CoV-2 spike protein (Severe acute respiratory syndrome coronavirus 2, UniProt P0DTC2)
[2] = molecular target: SARS-CoV-2 spike protein (SARS-CoV-2), P0DTC2

Row | Molecule | inhibition of infection of OECM1 cells [1] | biosensing sensitivity (SARS-CoV-2 spike protein) [ng in 1 μL per test] | concentration of SARS-CoV-2 spike protein at which binding activity is shown (SARS-CoV-2 spike protein) [pM] | biosensing sensitivity (ng in 1 µL per test) [2] | lowest spike protein concentration showing binding activity [2] [pM]
1 | DLSGFVRPDPVIISSPLSTFFSDAGYKSLLKITMTQSTVPLNLIRVHLMVAVEG HLFQKSFQASPNLAYTFIWDKTDAYGQRVYGLSDAVVSVGFEYETCPSLILW EKRTALLQGFELD [T2 peptide] | significantly inhibited | 0.1 | 0.1 |  | 
2 | T2 peptide (modifications not checked) peptide: DLSGFVRPDPVIISSPLSTFFSDAGYKSLLKITMTQSTVPLNLIRVHLMVAVEGHLFQKSFQASPNLAYTFIWDKTDAYGQRVYGLSDAVVSVGFEYETCPSLILWEKRTALLQGFELD |  |  |  | 0.1 | 0.1
